Values after ≈ are worked out from the molar mass of the structure shown. Active and inactive are the calls of the source. The rule behind the calls is not given here.
Assays:
HT-29 = test: Antiproliferative activity against human HT-29 cells; format: functional, cell-based
[1] = test system: Mycobacterium tuberculosis; test: Antimicrobial activity against Mycobacterium tuberculosis; format: functional
MDA-MB-435 = test: Antiproliferative activity against human MDA-MB-435 cells; format: functional, cell-based
[2] = test system: Mycolicibacterium smegmatis; test: Antimicrobial activity against Mycobacterium smegmatis at 50 ug/ml; format: functional, organism-based
Candida albicans = test: Antimicrobial activity against Candida albicans at 50 ug/ml; format: functional, organism-based
Staphylococcus aureus = test: Antimicrobial activity against Staphylococcus aureus at 50 ug/ml; format: functional, organism-based
Escherichia coli = test: Antimicrobial activity against Escherichia coli at 50 ug/ml; format: functional, organism-based
[3] = test system: Mycobacterium tuberculosis; test: Antimicrobial activity against Mycobacterium tuberculosis at 50 ug/ml; format: functional, organism-based

SMILES | IC50 (HT-29) [µM] | MIC [1] [µg/mL] | IC50 (MDA-MB-435) [µM] | Activity [2] | Activity (Candida albicans) | Activity (Staphylococcus aureus) | Activity (Escherichia coli) | Activity [3]
CCCCCCC[C@@H]1CC(=O)N[C@@H](C(C)C)C(=O)N[C@H]([C@@H](O)C(C)C)C(=O)N[C@@H](C)C(=O)N[C@H]([C@@H](O)C(C)C)C(=O)N[C@@H](CCC(N)=O)C(=O)N(C)[C@@H]([C@@H](C)CC)C(=O)N[C@H](CC(N)=O)C(=O)N[C@@H]([C@@H](C)O)C(=O)N2CCC[C@H]2C(=O)N[C@H](CC(C)C)C(=O)N[C@@H]([C@@H](C)O)C(=O)N1 | 1.7 | 23.8 (≈ 17.3 µM) | 1 | inactive | inactive | inactive | inactive | –
C/C=C1/NC(=O)[C@H](CCC(N)=O)NC(=O)C[C@@H](CCCCCCC)NC(=O)CNC(=O)[C@H](CC(C)C)NC(=O)[C@@H](Cc2ccccc2)NC(=O)[C@H](C(C)C)NC(=O)[C@@H](CC(C)C)NC(=O)[C@@H](Cc2ccc(O)cc2)NC(=O)[C@H](CO)NC(=O)[C@@H]2CCCN2C1=O | 11.5 | – | 11.7 | inactive | inactive | inactive | inactive | inactive

Source: ChEMBL document CHEMBL3596153, “Trichormamides C and D, antiproliferative cyclic lipopeptides from the cultured freshwater cyanobacterium cf. Oscillatoria sp. UIC 10045” (Bioorg Med Chem, 2015)
